Values of other authors as cited in patent US20240207217A1, “IMPROVED TREATMENT METHODS FOR CABAZITAXEL” (ORBICULAR PHARMACEUTICAL TECHNOLOGIES PRIVATE LIMITED, priority 2020, published 2024).
Entries after “also recorded” stand apart in the source; their conditions may differ.

Experiments:
complement = conditions: enzyme-linked immunosorbent assays
[1] = clinical trials in patients with cancer
[2] = IV administration; high clearance and small Vd

Solubility in water	Half-life (t ½) [2]	Compound	Complement activation in vitro (in words) (complement)	Incidence of infusion-site adverse events (ISAEs) [1]
poorly soluble	–	CO[C@H]1C(=O)[C@]2(C)[C@@H](OC)C[C@H]3OC[C@@]3(OC(C)=O)[C@H]2[C@H](OC(=O)c2ccccc2)[C@]2(O)C[C@H](OC(=O)[C@H](O)[C@@H](NC(=O)OC(C)(C)C)c3ccccc3)C(C)=C1C2(C)C [cabazitaxel]	–	–
poorly soluble	–	CC(=O)O[C@@]12CO[C@@H]1C[C@H](O)[C@@]1(C)C(=O)[C@H](O)C3=C(C)[C@@H](OC(=O)[C@H](O)[C@@H](NC(=O)OC(C)(C)C)c4ccccc4)C[C@@](O)([C@@H](OC(=O)c4ccccc4)[C@H]21)C3(C)C [docetaxel]	cause complement activation	3-4%
poorly soluble	–	CC(=O)O[C@H]1C(=O)[C@@]2(C)[C@H]([C@H](OC(=O)c3ccccc3)[C@]3(O)C[C@H](OC(=O)[C@H](O)[C@@H](NC(=O)c4ccccc4)c4ccccc4)C(C)=C1C3(C)C)[C@]1(OC(C)=O)CO[C@@H]1C[C@@H]2O [paclitaxel]	–	–
–	–	Poly-oxyethylene-sorbitan monooleate [polysorbate 80]	cause complement activation; also recorded: could activate the complement system	–
–	quite short	sulfobutyl-ether-beta-cyclodextrin [SBCD]	–	–
